Reference: paper PMC11905058, “Novel Leech Antimicrobial Peptides, Hirunipins: Real‐Time 3D Monitoring of Antimicrobial and Antibiofilm Mechanisms Using Optical Diffraction Tomography” (Advanced Science, 2025)
No end group written: not given here.

Experiments:
Format in all cases: cell-based
[1] = tested on: Escherichia coli [KCTC 1682]; details: KCTC 1682, 24 h
Protocol: (§1) The MICs of the peptides were measured by the Clinical and Laboratory Standards Institute (CLSI) broth microdilution method, as outlined in a previous study.^[ [26], [27] ^]
(§2) Minimal Inhibitory Concentrations (MICs): Bacteria were grown to mid-logarithmic phase and diluted in Mueller-Hinton broth (MHB) (Difco). The bacterial suspension (1×10^6 CFU/well) was added to a 96-well microtiter plate along with a two-fold serial dilution of samples. The plate was incubated at 37 °C for 24 hours and the bacterial growth inhibition was assessed by measuring the optical density using an ELISA plate reader. The minimum inhibitory concentration (MIC) was defined as the lowest concentration of samples that prevented visible bacterial growth.

[2] = tested on: Pseudomonas aeruginosa [KCTC 1637]; details: KCTC 1637, 24 h
Protocol: as §1, §2

[3] = tested on: Staphylococcus aureus [KCTC1621]; details: KCTC1621, 24 h
Protocol: as §1, §2

[4] = tested on: Staphylococcus epidermidis [KCTC 1917]; details: KCTC 1917, 24 h
Protocol: as §1, §2

LLAHVSKGFKLSMQKSKKPSLPIKT-NH2 [LP5]
>128 µg/mL: Minimum inhibitory concentration (MIC), Escherichia coli [KCTC 1682] [1] | Minimum inhibitory concentration (MIC), Pseudomonas aeruginosa [KCTC 1637] [2] | Minimum inhibitory concentration (MIC), Staphylococcus aureus [KCTC1621] [3] | Minimum inhibitory concentration (MIC), Staphylococcus epidermidis [KCTC 1917] [4]

LNTPRPELSISQRLLIKNFILII-NH2 [LP14]
>128 µg/mL: Minimum inhibitory concentration (MIC), Escherichia coli [KCTC 1682] [1] | Minimum inhibitory concentration (MIC), Pseudomonas aeruginosa [KCTC 1637] [2] | Minimum inhibitory concentration (MIC), Staphylococcus aureus [KCTC1621] [3] | Minimum inhibitory concentration (MIC), Staphylococcus epidermidis [KCTC 1917] [4]

LSKGGFKGKPERAMAHHLKNIRKKLSKSIMKS [LP6]
>128 µg/mL: Minimum inhibitory concentration (MIC), Escherichia coli [KCTC 1682] [1] | Minimum inhibitory concentration (MIC), Pseudomonas aeruginosa [KCTC 1637] [2] | Minimum inhibitory concentration (MIC), Staphylococcus aureus [KCTC1621] [3] | Minimum inhibitory concentration (MIC), Staphylococcus epidermidis [KCTC 1917] [4]

MANPVNSIKRIIKKLKKERKCKPNL [LP18]
>128 µg/mL: Minimum inhibitory concentration (MIC), Escherichia coli [KCTC 1682] [1] | Minimum inhibitory concentration (MIC), Pseudomonas aeruginosa [KCTC 1637] [2] | Minimum inhibitory concentration (MIC), Staphylococcus aureus [KCTC1621] [3] | Minimum inhibitory concentration (MIC), Staphylococcus epidermidis [KCTC 1917] [4]

NITDYNKKKVRLLPRFIFPLG-NH2 [LP13]
>128 µg/mL: Minimum inhibitory concentration (MIC), Escherichia coli [KCTC 1682] [1] | Minimum inhibitory concentration (MIC), Pseudomonas aeruginosa [KCTC 1637] [2] | Minimum inhibitory concentration (MIC), Staphylococcus aureus [KCTC1621] [3] | Minimum inhibitory concentration (MIC), Staphylococcus epidermidis [KCTC 1917] [4]

PKKVRKSFKKLRNFSNKNSNIYGLPA [LP17]
>128 µg/mL: Minimum inhibitory concentration (MIC), Escherichia coli [KCTC 1682] [1] | Minimum inhibitory concentration (MIC), Pseudomonas aeruginosa [KCTC 1637] [2] | Minimum inhibitory concentration (MIC), Staphylococcus aureus [KCTC1621] [3] | Minimum inhibitory concentration (MIC), Staphylococcus epidermidis [KCTC 1917] [4]

QKFNGKSYALAKKMKKRQVKFLNRILDQL [LP19]
>128 µg/mL: Minimum inhibitory concentration (MIC), Escherichia coli [KCTC 1682] [1] | Minimum inhibitory concentration (MIC), Pseudomonas aeruginosa [KCTC 1637] [2] | Minimum inhibitory concentration (MIC), Staphylococcus aureus [KCTC1621] [3] | Minimum inhibitory concentration (MIC), Staphylococcus epidermidis [KCTC 1917] [4]

VLNVQSIMSWNKRVGGMILNLKT [LP11]
>128 µg/mL: Minimum inhibitory concentration (MIC), Escherichia coli [KCTC 1682] [1] | Minimum inhibitory concentration (MIC), Pseudomonas aeruginosa [KCTC 1637] [2] | Minimum inhibitory concentration (MIC), Staphylococcus aureus [KCTC1621] [3] | Minimum inhibitory concentration (MIC), Staphylococcus epidermidis [KCTC 1917] [4]
